# Bridge positions count the residues as written; N and C are the ends. Ends that are not written are not given here. PEG = not defined here
# Legend:
# [1] = tested on: normal ICR mice; experiment: In vivo hypoglycemic activity of GLP-1 analogues, subcutaneous administration, oral glucose loading; parameters: species or system mouse; settings: normal ICR mice, 1 μmol/kg s.c., glucose 2 g/kg by gavage
# Protocol: FIG. 21. In vivo hypoglycemic activities of GLP-1 analogues by subcutaneous administration. Normal ICR mice were subcutaneously injected with GLP-1 and its analogues or corresponding volumes of saline (1.0 μmol/kg, n=10). After 30 min, glucose solution (2 g/kg) was administered by gavage, and blood was collected from the tail tip at 30, 60, and 120 min after glucose administration. Blood glucose was measured using glucose oxidase method, and blood glucose values and area under the blood glucose curve (AUC) were calculated at each timepoint.
# The day before the experiment, all of the animals were fasted for 15-16 hours with water ad libitum. On the day of the experiment, the animals were randomly divided according to body weight (n=10). Firstly, the blood was collected from the tail tip at 0 hour, and then the animals were administered subcutaneously with GLP-1 analog (SEQ ID NOs: 194-201, 1 μmol/kg) or saline. After 30 minutes, the animals were administered by gavage with glucose solution (2 g/kg), and the blood was collected from the tail tip at 30, 60, and 120 minutes later. Blood glucose was measured using glucose oxidase method. The blood glucose and area under the blood glucose-time curve (AUC) were calculated.
# [2] = tested on: normal ICR mice; experiment: In vivo hypoglycemic activity of GLP-1 analogues, duodenal administration, oral glucose loading; parameters: species or system mouse; settings: normal ICR mice, 10 μmol/kg duodenal, glucose 2 g/kg by gavage
# Protocol: FIG. 22. In vivo hypoglycemic activities of GLP-1 analogues by duodenal administration. Normal ICR mice were anesthetized with inhalation of ether, and the duodenum was surgically removed and injected with GLP-1 and its analogues or a corresponding volume of saline ([…], n=9-11), and finally the incision was sewed. After 15 min, glucose solution (2 g/kg) was administered by gavage, and blood was collected from the tail tips at 15, 30, and 60 min after glucose administration. Blood glucose was measured using glucose oxidase method, and blood glucose values and area under the blood glucose curve (AUC) were calculated at each timepoint.
# Drug delivery technology can use enteric coating technology to achieve oral administration targeting the small intestine. In order to test the feasibility of direct small intestinal administration of GLP-1, the present invention designs duodenal administration. The experimental process is as follows: The day before the experiment, all of the animals were fasted for 15-16 hours with water ad libitum. On the day of the experiment, the animals were randomly divided according to body weight (n=9-11 or 14-15 for combined administration). Firstly, the blood was collected from the tail tip at 0 hours, and then the animals were anesthetized by inhaling ether. A small incision was made near the underside of the stomach using surgical scissors, and the duodenum was carefully removed and administered with GLP-1 analogs (SEQ ID NOs: 194-209, 10 μmol/kg) or saline. Finally, the wound was sutured. After 15 minutes, the glucose solution (2 g/kg) was administered by gavage, and the blood were collected from the tail tips at 15, 30, and 60 minutes after glucose administration. Blood glucose was measured using the glucose oxidase method. The blood glucose at each moment and area under the blood glucose-time curve (AUC) were calculated.
# AUC mg×h/dL)=(BG0+BG15)×15/60+(BG15+BG30)×15/60+(BG30+BG60)×30/60. BG0, BG15, BG30, and BG60 represent blood glucose levels at 0, 15, 30, and 60 minutes after glucose loading, respectively.
Substance,"hypoglycemic activity, subcutaneous injection (in words) [1]","hypoglycemic activity, duodenal administration (in words) [2]"
Cys-Gly-Arg-Ala-Thr-Lys-Ser-Ile-Pro-Pro-Ile-Cys-Phe-Gly-Gly-Gln-Arg-Phe-Ser-Arg-Gly-Gly-His-Ala-Glu-Gly-Thr-Phe-Thr-Ser-Asp-Val-Ser-Ser-Tyr-Leu-Glu-Gly-Gln-Ala-Ala-Lys-Glu-Phe-Ile-Ala-Trp-Leu-Val-Lys-Gly-Arg-Gly-Gly-Lys (CGRATKSIPPICFGGQRFSRGGHAEGTFTSDVSSYLEGQAAKEFIAWLVKGRGGK; Synthetic construct BT9-N-GLP-1) [SEQ ID NO: 199],significantly reduced the blood glucose levels at 30 and 60 minutes after oral glucose loading and the AUC,did not influence the blood glucose levels
Gly-Arg-Cys-Thr-Lys-Ser-Ile-Pro-Pro-Ile-Cys-Phe-Pro-Gly-Gly-Gln-Arg-Phe-Ser-Arg-Gly-Gly-His-Ala-Glu-Gly-Thr-Phe-Thr-Ser-Asp-Val-Ser-Ser-Tyr-Leu-Glu-Gly-Gln-Ala-Ala-Lys-Glu-Phe-Ile-Ala-Trp-Leu-Val-Lys-Gly-Arg-Gly-Gly-Lys (GRCTKSIPPICFPGGQRFSRGGHAEGTFTSDVSSYLEGQAAKEFIAWLVKGRGGK; Synthetic construct BT1-N-GLP-1) [SEQ ID NO: 195],significantly reduced the blood glucose levels at 30 and 60 minutes after oral glucose loading and the AUC,did not influence the blood glucose levels
Gly-Gln-Arg-Phe-Ser-Arg-Gly-Gly-His-Ala-Glu-Gly-Thr-Phe-Thr-Ser-Asp-Val-Ser-Ser-Tyr-Leu-Glu-Gly-Gln-Ala-Ala-Lys-Glu-Phe-Ile-Ala-Trp-Leu-Val-Lys-Gly-Arg-Gly-Gly-Lys-Gly-Arg-Cys-Thr-Lys-Ser-Ile-Pro-Pro-Ile-Cys-Phe-Pro (GQRFSRGGHAEGTFTSDVSSYLEGQAAKEFIAWLVKGRGGKGRCTKSIPPICFP; Synthetic construct N-GLP-1-BT1) [SEQ ID NO: 197],significantly reduced the blood glucose levels at 30 and 60 minutes after oral glucose loading and the AUC,did not influence the blood glucose levels
Gly-Gln-Arg-Phe-Ser-Arg-Gly-Gly-His-Ala-Glu-Gly-Thr-Phe-Thr-Ser-Asp-Val-Ser-Ser-Tyr-Leu-Glu-Gly-Gln-Ala-Ala-Lys-Glu-Phe-Ile-Ala-Trp-Leu-Val-Lys-Gly-Arg-Gly-Gly-Lys-Gly-Cys-Gly-Arg-Ala-Thr-Lys-Ser-Ile-Pro-Pro-Ile-Cys-Phe (GQRFSRGGHAEGTFTSDVSSYLEGQAAKEFIAWLVKGRGGKGCGRATKSIPPICF; Synthetic construct N-GLP-1-BT9) [SEQ ID NO: 201],significantly reduced the blood glucose levels at 30 and 60 minutes after oral glucose loading and the AUC,did not influence the blood glucose levels
PEG-Gly-Ile-Pro-Ile-Gly-Gly-His-Ala-Glu-Gly-Thr-Phe-Thr-Ser-Asp-Val-Ser-Ser-Tyr-Leu-Glu-Gly-Gln-Ala-Ala-Lys-Glu-Phe-Ile-Ala-Trp-Leu-Val-Lys-Gly-Arg-Gly-Gly-Lys-Gly-Cys-Gly-Arg-Ala-Thr-Lys-Ser-Ile-Pro-Pro-Ile-Cys-Phe ({PEG}-GIPIGGHAEGTFTSDVSSYLEGQAAKEFIAWLVKGRGGKGCGRATKSIPPICF; disulfide 41-52 (inferred); reading uncertain; also: printed as PEG-Gly-Ile-Pro-Ile-Gly-Gly-His-Ala-Glu-Gly-Thr-Phe-Thr-Ser-Asp-Val-Ser-Ser-Tyr-Leu-Glu-Gly-Gln-Ala-Ala-Lys-Glu-Phe-Ile-Ala-Trp-Leu-Val-Lys-Gly-Arg-Gly-Gly-Lys-Gly-Cys-Gly-Arg-Ala-Thr-Lys-Ser-Ile-Pro-Pro-Ile-Cys-Phe) [N-Terminal PEGylated SEQ ID NO: 200],did not show any significant differences in their hypoglycemic activity compared to the unmodified molecules,
PEG-Phe-Cys-Thr-Tyr-Ser-Ile-Pro-Pro-Gln-Cys-Tyr-Gly-Gly-Ile-Pro-Ile-Gly-Gly-His-Ala-Glu-Gly-Thr-Phe-Thr-Ser-Asp-Val-Ser-Ser-Tyr-Leu-Glu-Gly-Gln-Ala-Ala-Lys-Glu-Phe-Ile-Ala-Trp-Leu-Val-Lys-Gly-Arg-Gly-Gly-Lys ({PEG}-FCTYSIPPQCYGGIPIGGHAEGTFTSDVSSYLEGQAAKEFIAWLVKGRGGK; disulfide 2-10 (inferred); reading uncertain; also: printed as PEG-Phe-Cys-Thr-Tyr-Ser-Ile-Pro-Pro-Gln-Cys-Tyr-Gly-Gly-Ile-Pro-Ile-Gly-Gly-His-Ala-Glu-Gly-Thr-Phe-Thr-Ser-Asp-Val-Ser-Ser-Tyr-Leu-Glu-Gly-Gln-Ala-Ala-Lys-Glu-Phe-Ile-Ala-Trp-Leu-Val-Lys-Gly-Arg-Gly-Gly-Lys) [N-Terminal PEGylated SEQ ID NO: 204],did not show any significant differences in their hypoglycemic activity compared to the unmodified molecules,

# — patent publication US20230416329A1, “A PEPTIDE WITH DISULFIDE BONDS AND INHIBITORY ACTIVITY AGAINST SERINE PROTEASES, DERIVED HYBRID PEPTIDES THEREOF, AND USES THEREOF” (INSTITUTE OF MATERIA MEDICA , CHINESE ACADEMY OF MEDICAL …, priority 2020, published 2023)
